# Measurements published in patent US20210340500A1, “METHOD FOR PRODUCING INTESTINAL CELLS FROM PLURIPOTENT STEM CELLS” (TOKYO INSTITUTE OF TECHNOLOGY, priority 2018, published 2021).
# Columns and labels:
# [1] = target: CYP3A4 (Homo sapiens, UniProt P08684); experiment: CYP metabolism assay (midazolam hydroxylation, LC-MS/MS) in hiPS-derived enterocytes; conditions: day 21 of differentiation, 120 min incubation
# [2] = system: Caco-2 cells; conditions: cited from earlier work
# [3] = system: hiPSC-derived enterocytes
# [4] = system: Caco-2 cells; experiment: Transport across Caco-2 cell monolayer (literature); format: in vitro ADME, human; conditions: corresponds to the literature value
# [5] = target: P-gp (Homo sapiens, UniProt P08183)
# P-gp, sequence (P08183 whole entry): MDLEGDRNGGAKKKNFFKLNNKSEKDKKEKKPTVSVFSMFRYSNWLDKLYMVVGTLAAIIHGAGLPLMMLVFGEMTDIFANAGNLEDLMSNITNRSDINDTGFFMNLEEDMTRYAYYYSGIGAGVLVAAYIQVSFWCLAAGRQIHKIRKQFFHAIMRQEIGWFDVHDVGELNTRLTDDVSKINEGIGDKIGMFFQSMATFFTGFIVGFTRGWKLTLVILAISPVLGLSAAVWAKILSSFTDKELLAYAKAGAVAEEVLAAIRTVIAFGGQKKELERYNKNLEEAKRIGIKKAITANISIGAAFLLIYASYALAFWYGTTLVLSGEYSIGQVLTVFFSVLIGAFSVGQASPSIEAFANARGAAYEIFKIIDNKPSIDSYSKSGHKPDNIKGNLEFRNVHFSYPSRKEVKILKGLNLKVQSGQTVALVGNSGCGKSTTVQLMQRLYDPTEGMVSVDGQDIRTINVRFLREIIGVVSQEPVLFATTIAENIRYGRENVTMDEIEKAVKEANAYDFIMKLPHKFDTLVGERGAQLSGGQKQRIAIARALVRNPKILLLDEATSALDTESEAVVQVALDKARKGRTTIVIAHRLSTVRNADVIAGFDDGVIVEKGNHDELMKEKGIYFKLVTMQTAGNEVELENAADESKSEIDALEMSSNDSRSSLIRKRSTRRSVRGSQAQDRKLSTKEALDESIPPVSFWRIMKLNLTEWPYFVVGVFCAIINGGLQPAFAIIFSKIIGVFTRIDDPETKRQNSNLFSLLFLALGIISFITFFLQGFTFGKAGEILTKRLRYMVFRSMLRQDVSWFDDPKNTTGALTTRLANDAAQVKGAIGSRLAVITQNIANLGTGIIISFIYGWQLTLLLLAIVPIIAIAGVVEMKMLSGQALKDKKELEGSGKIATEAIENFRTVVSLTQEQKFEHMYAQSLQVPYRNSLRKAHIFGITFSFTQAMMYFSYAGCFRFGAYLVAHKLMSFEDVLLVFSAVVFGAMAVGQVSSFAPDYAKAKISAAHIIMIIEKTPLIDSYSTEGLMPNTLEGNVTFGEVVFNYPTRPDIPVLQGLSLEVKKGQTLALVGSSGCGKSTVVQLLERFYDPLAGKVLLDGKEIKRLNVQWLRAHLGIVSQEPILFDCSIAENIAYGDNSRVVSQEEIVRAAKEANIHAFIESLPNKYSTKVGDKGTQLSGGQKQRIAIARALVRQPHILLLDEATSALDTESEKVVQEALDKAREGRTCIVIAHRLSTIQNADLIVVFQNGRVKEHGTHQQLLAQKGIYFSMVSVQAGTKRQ
# [6] = system: CYP3A4 expression; experiment: CYP3A4 mRNA expression in hiPSC-derived enterocytes by real time PCR; format: cell-based, human; conditions: day 21 of differentiation
# Experimental: For intestine differentiation, the day 10 intestinal precursor cell stock was freeze thawed, and plated onto a rehydrated vitrigel membrane (CVM) 24-well insert (ad-MED Vitrigel™ 2, KANTO KAGAKU, culture area: 0.33 cm^2/insert) in M2 medium at a concentration of 1.6×10^5 cells/well. Y-27632 (WAKO: 251-00514) was added to the medium upon plating for the first 2 days. The cells were cultured in M2 until day 15. A volume of the medium was 200 μL for an upper layer and 700 μL for a lower layer of the cell culture insert. The medium was changed to M3-1 or M3-2 for days 15 to 21, or up to day 30. The medium was replaced every 2 days with a fresh medium.
# M3-1 medium: William's Medium E supplemented with L-glutamine, HCM SingleQuots (containing neither GA1000 nor human EGF) (Lonza, CC-4182), 1% PS (Nacalai), 10 ng/ml recombinant human HGF (PeproTech 100-39), 1 μM dexamethasone (Sigma-Aldrich, D8893), 1.4 μM BIO, and 1 M calcitriol (Sigma-Aldrich, D1530). […]
# For a reverse transcription reaction, 2.5 μg of RNA was reverse-transcribed using PrimeScript™ RT Master Mix (Takara, Japan). For real-time PCR analysis, mRNA expression was quantified with SyberGreen on a StepOne Plus (Applied Biosystems, Foster City, Calif.). […] A target mRNA level was expressed as an arbitrary unit, and was determined using the ΔΔ CT method.
# CYP3A4, sequence (P08684 whole entry): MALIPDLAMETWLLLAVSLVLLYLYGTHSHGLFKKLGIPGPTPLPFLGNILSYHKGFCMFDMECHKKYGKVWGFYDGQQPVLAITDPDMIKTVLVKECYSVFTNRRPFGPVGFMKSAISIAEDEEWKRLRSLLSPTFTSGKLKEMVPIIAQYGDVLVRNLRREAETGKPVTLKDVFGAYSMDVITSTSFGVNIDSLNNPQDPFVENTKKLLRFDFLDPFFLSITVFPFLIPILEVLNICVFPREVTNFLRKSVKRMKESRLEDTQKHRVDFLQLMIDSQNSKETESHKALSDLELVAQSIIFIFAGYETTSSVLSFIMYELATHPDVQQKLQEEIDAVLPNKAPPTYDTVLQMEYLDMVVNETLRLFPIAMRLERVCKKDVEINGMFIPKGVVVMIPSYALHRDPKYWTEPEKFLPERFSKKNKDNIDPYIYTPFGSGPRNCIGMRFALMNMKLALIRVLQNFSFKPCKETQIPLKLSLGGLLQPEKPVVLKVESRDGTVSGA
compound,measurement,setting,value
Cc1ncc2n1-c1ccc(Cl)cc1C(c1ccccc1F)=NC2 [midazolam],clearance rate of formation of 1′-OH midazolam,[1],0.773 μL/min/mg cellular protein
CC(C)NCC(O)COc1cccc2ccccc12 (centres unmarked) [propranolol],transcellular transport in the Caco-2 cells,[2]; Artursson 1990,4.19e-05 cm/s
same,transcellular transport (present result),"[3]; human, 120 min, 0.1 μCi/3 mL, pH 7.4",48 μL/120 min/well
same,"transcellular transport in the Caco-2 cells, converted",[4],approximately 99.4 μL/120 min/well
OC[C@@H](O)[C@@H](O)[C@H](O)[C@H](O)CO [mannitol],transport clearance across a Caco-2 cell monolayer (paracellular),[2]; Cogburn et al. 1991,3 %/cm^2/hr
same,directional transport across a cell monolayer,[3],directional transport of neither propranolol nor mannitol across a cell monolayer was observed
C[C@H]1O[C@@H](O[C@H]2[C@@H](O)C[C@H](O[C@H]3[C@@H](O)C[C@H](O[C@H]4CC[C@@]5(C)[C@H](CC[C@@H]6[C@@H]5C[C@@H](O)[C@]5(C)[C@@H](C7=CC(=O)OC7)CC[C@]65O)C4)O[C@@H]3C)O[C@@H]2C)C[C@H](O)[C@@H]1O [digoxin],directional B-to-A transport compared with A-to-B transport,[5],at a level higher than apical-to-basal transport
C=C1/C(=C\C=C2/CCC[C@]3(C)[C@@H]([C@H](C)CCCC(C)(C)O)CC[C@@H]23)C[C@@H](O)C[C@@H]1O [calcitriol],CYP3A4 expression when calcitriol is removed from M3-2 medium,[6],minimally expressed CYP3A4
